Results from patent US6624182B1, “Hydroxyphenylvinylthiazoles” (Ciba Specialty Chemicals Corporation, priority 1999, dated 2003).

Key:
Assay in all cases: Determination of the minimum inhibitory concentration (MIC value) in microtitre plates
S. aureus = format: cell-based; details: optical density at 620 nm, 48 hours at 37° C., MIC = ≦20% growth; tested at 100; 10 and 1 ppm (approximate values); (2), (3), (4) at 120; 60; 30; 15; 7.5; 3.75 ppm
Summary of the method: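 DMSO-dissolved compounds were tested in 1:2 serial dilutions against bacteria in CASO bouillon, from inocula of 1−5×10^6 KBE/ml diluted 1:100. Growth was read by OD 620 nm after 48 h at 37 °C. MIC was the lowest concentration giving ≦20% growth versus the growth control, tested in duplicate.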

E. coli = format: cell-based, Escherichia coli NCTC 8196; details: optical density at 620 nm, 48 hours at 37° C., MIC = ≦20% growth; tested at 100; 10 and 1 ppm (approximate values); (2), (3), (4) at 120; 60; 30; 15; 7.5; 3.75 ppm
Summary of the method: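 E. coli NCTC 8196 grown overnight in CASO bouillon, adjusted to 1−5×10^6 KBE/ml, diluted 1:100 and added to DMSO-dissolved compounds in 1:2 dilution series. Incubated 48 h at 37° C; growth read as OD 620 nm. MIC is the lowest concentration giving ≤20% growth versus growth control; duplicates.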

P. aeruginosa = format: cell-based, Pseudomonas aeruginosa CIP A-22; details: optical density at 620 nm, 48 hours at 37° C., MIC = ≦20% growth; tested at 100; 10 and 1 ppm (approximate values); (2), (3), (4) at 120; 60; 30; 15; 7.5; 3.75 ppm
Summary of the method: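 P. aeruginosa CIP A-22 at 1−5×10^6 KBE/ml, diluted 1:100 in CASO bouillon, exposed to 1:2 serial dilutions of DMSO-dissolved compound for 48 h at 37 °C, in duplicate. Growth read by OD 620 nm; MIC is the lowest concentration giving ≤20% growth relative to growth control.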

C. albicans = format: cell-based, Candida albicans ATCC 10231; details: optical density at 620 nm, 48 hours at 37° C., MIC = ≦20% growth; tested at 100; 10 and 1 ppm (approximate values); (2), (3), (4) at 120; 60; 30; 15; 7.5; 3.75 ppm
Summary of the method: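 Candida albicans ATCC 10231 grown overnight in CASO broth, adjusted to 1–5×10^6 CFU/ml then diluted 1:100, was exposed to 1:2 serial dilutions of compound (DMSO) for 48 h at 37 °C. Growth was read as OD620; MIC was the concentration giving ≤20% growth versus control, tested in duplicate.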

A. niger = format: cell-based, Aspergillus niger ATCC 6275; details: optical density at 620 nm, 5 days at 28° C., MIC = ≦20% growth; tested at 100; 10 and 1 ppm (approximate values); (2), (3), (4) at 120; 60; 30; 15; 7.5; 3.75 ppm
Summary of the method: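 A. niger ATCC 6275 spores, adjusted to 1−5×10^6 KBE/ml and diluted 1:100 in Sabouraud 2% glucose bouillon, were exposed to 2-fold dilutions of DMSO-dissolved compounds for 5 days at 28°C. Growth read as OD at 620 nm. MIC is the lowest concentration giving ≤20% growth versus growth control, tested in duplicate.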

| MIC values in ppm S. aureus (S. aureus) | MIC values in ppm E. coli (E. coli) | MIC values in ppm P. aeruginosa (P. aeruginosa) | MIC values in ppm C. albicans (C. albicans) | MIC values in ppm A. niger (A. niger) | Structure (SMILES) |
| --- | --- | --- | --- | --- | --- |
| >100 ppm | >100 ppm | >100 ppm | >100 ppm | >100 ppm | Oc1ccccc1/C=C/c1nc(-c2ccccc2)cs1 [Compound of formula (56)] |
| >100 ppm | >100 ppm | >100 ppm | >100 ppm | >100 ppm | COc1cc(/C=C/c2nc(-c3ccccc3)cs2)cc(O)c1OC [Compound of formula (57)] |
| >100 ppm | >100 ppm | >100 ppm | >100 ppm | >100 ppm | Cc1cc(/C=C/c2nc(-c3ccccc3)cs2)cc(C)c1O [Compound of formula (58)] |
| >100 ppm | >100 ppm | >100 ppm | >100 ppm | >100 ppm | Cc1cccc(/C=C/c2nc(-c3ccccc3)cs2)c1O [Compound of formula (59)] |
| >100 ppm | >100 ppm | >100 ppm | >100 ppm | >100 ppm | Oc1cc(OCc2ccccc2)ccc1/C=C/c1nc(-c2ccccc2)cs1 [Compound of formula (60)] |
| >100 ppm | >100 ppm | >100 ppm | >100 ppm | >100 ppm | COc1cc(O)ccc1/C=C/c1nc(-c2ccccc2)cs1 [Compound of formula (61)] |

The next lines start with the compound.

| Structure (SMILES) | MIC values in ppm S. aureus (S. aureus) | MIC values in ppm E. coli (E. coli) | MIC values in ppm P. aeruginosa (P. aeruginosa) | MIC values in ppm C. albicans (C. albicans) | MIC values in ppm A. niger (A. niger) |
| --- | --- | --- | --- | --- | --- |
| CCc1csc(/C=C/c2ccc(OCc3ccccc3)cc2O)n1 [Compound of formula (49)] | >100 ppm | >100 ppm | >100 ppm | >100 ppm | >100 ppm |
| CCc1csc(/C=C/c2ccc(O)cc2OC)n1 [Compound of formula (50)] | >100 ppm | >100 ppm | >100 ppm | >100 ppm | >100 ppm |
| Oc1cccc(/C=C/c2nc(-c3ccccc3)cs2)c1 [Compound of formula (51)] | >100 ppm | >100 ppm | >100 ppm | >100 ppm | >100 ppm |
| COc1ccc(/C=C/c2nc(-c3ccccc3)cs2)cc1O [Compound of formula (52)] | >100 ppm | >100 ppm | >100 ppm | >100 ppm | >100 ppm |
| CCOc1cc(/C=C/c2nc(-c3ccccc3)cs2)ccc1O [Compound of formula (53)] | >100 ppm | >100 ppm | >100 ppm | >100 ppm | >100 ppm |
| COc1cc(/C=C/c2nc(-c3ccccc3)cs2)ccc1O [Compound of formula (54)] | >100 ppm | >100 ppm | >100 ppm | >100 ppm | >100 ppm |
| COc1ccc(/C=C/c2nc(-c3ccccc3)cs2)c(O)c1 [Compound of formula (55)] | >100 ppm | >100 ppm | >100 ppm | >100 ppm | >100 ppm |
